# Source: PubChem BioAssay AID1794803 (Yongcheng Song lab at Baylor College of Medicine, 2022)
# pEC50: −log10 of the molar value. Activity calls are given as the source filed them.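 How the source made its calls: active means EC50 under 50 µM in a live-cell viability test; inactive means the rest.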
# Tested on: NB4 APL cells, proliferation, XTT absorbance
# Assay: growth inhibition of NB4 leukemia cells, dose response, AHD inhibitor project, cell-based, XTT viability (AID 1794803)
EC50,pEC50,Structure (SMILES)
> 51 µM (inactive),,O=C(NCC1CCNCC1)c1cc2cc(-c3ccc(N4CCCCC4)cc3)ccc2[nH]1
,4.96,O=C(NCC1CCNCC1)c1coc2cc(-c3ccc(N4CCCCC4)cc3)ccc12
,5.03,O=C(NCC1CCNCC1)c1cc2cc(-c3ccc(N4CCCCC4)cc3)ccc2s1
> 51 µM (inactive),,O=C(NCC1CCNCC1)c1cc2cc(-c3cn[nH]c3)ccc2[nH]1
> 51 µM (inactive),,NC(=O)c1ccc(-c2ccc3cc(C(=O)NCC4CCNCC4)sc3c2)cc1
,4.30,O=C(NCC1CCNCC1)c1c[nH]c2cc(-c3ccc(N4CCCC4)cc3)ccc12
,4.49,O=C(NCC1CCNCC1)c1c[nH]c2cc(-c3ccc(N4CCCCC4)cc3)ccc12
,5.00,O=C(NCC1CCNCC1)c1cc2ccc(-c3ccc(N4CCCC4)cc3)cc2s1
,5.28,O=C(NCC1CCNCC1)c1cc2ccc(-c3ccc(N4CCCCC4)cc3)cc2s1
> 51 µM (inactive),,NCc1ccc(-c2ccc3cc(C(=O)NCC4CCNCC4)oc3c2)cc1
